Measured values from patent publication US20250381157A1, “ANTIMICROBIAL COMPOUNDS” (priority 2022, published 2025).
Read-outs that look alike come from different tables or passages of the source.

What was measured:
[1] = system: CAMP gene (encoding human cathelicidin); assay: Induction test: ProLL-37-luciferase fusion protein expression in HT-29 CampLuc MN8 reporter cell line; type: cell-based; details: after 24h; luminescence relative to untreated cells
Protocol: FIG. 2: Induction test. […] Statistical analysis was performed by comparison of each compound-treatment conditions to the corresponding vehicle control using two-way ANOVA with Dunnett post-hoc test. Only significant changes were indicated, ** p<0.01, *** p<0.001, **** p<0.0001.
MN8CampLuc cells were handled according to Nylén et. al. with the following exception when predifferention of cells were performed before induction: […]

[2] = system: Enterotoxigenic Escherichia coli (ETEC) (ATCC ® 35401 ™, H10407); type: in vivo, mouse; details: for Clinical observation (Mean Score) Hunched Posture / Clinical observation (Mean Score) Rough coat / Clinical observation (Mean Score) hyperpnea: 1 mg/kg PO q12h 9 days, 0=absent 1=present
Protocol: FIG. 3: Schematic protocol for neutropenia mouse model
A schematic of the experimental model is depicted in FIG. 3.
That experiment was performed in the presence of cyclophosphamide, which is known to cause febrile neutropenia due to translocation of bacteria to vital organs.

[3] = system: Caco-2 cells; assay: Caco-2 cell study (permeability, efflux); type: in vitro ADME; details: for Active efflux: Caco-2
From the text: Caco-2 cells are used as a model of the intestinal epithelial barrier.

[4] = Plasma stability Mouse; type: in vitro ADME
[5] = Plasma stability Rat; type: in vitro ADME
[6] = Stability SGD, SIF w. Enzymes; type: in vitro ADME
[7] = Rat pharmacokinetics (IV, PO); type: in vivo; details: for half-life / bioavailability: in vivo; for bioavailability: oral
[8] = in vivo; details: mouse, po, 7 Days PO once daily MTD - mouse
[9] = Dose escalation toxicity and MTD in mouse
[10] = 1 mg/kg, PO, twice daily(q12h), 9 days
[11] = individual animals, 1 mg/kg, PO, twice daily(q12h), 9 days
[12] = PO, read-out: Elimination T½ (min) PO - rat
[13] = intravenous, PIV, read-out: Elimination T½ (min) PIV - rat

C#CCOCC(=O)N(C)Cc1ccc(C(=O)Nc2ccccc2N)cc1 [Compound 2.1, N-(2-aminophenyl)-4-[(methyl{[(prop-2-yn-1-yl)oxy]acetyl}amino)methyl]benzamide]
expression of ProLL-37-luciferase fusion protein [1]: induced expression

CCC(=O)NCCOCC(=O)N(C)Cc1ccc(C(=O)Nc2ccccc2N)cc1 [Compound 2.2, N-(2-aminophenyl)-4-{[N-methyl-2-(2-propanamidoethoxy)acetamido]methyl}benzamide]
expression of ProLL-37-luciferase fusion protein [1]: induced expression

C#CCCCC(=O)Oc1ccc(C(=O)Nc2ccccc2N)cc1 [Compound 2.3, 4-[(2-aminophenyl)carbamoyl]phenyl hex-5-ynoate]
expression of ProLL-37-luciferase fusion protein [1]: induced expression

Nc1ccccc1NC(=O)c1ccc(CNC(=O)OCc2cccnc2)cc1 [Entinostat, Pyridin-3-ylmethyl (4-((2-aminophenyl)-carbamoyl)benzyl)carbamate, reference compound]
Body weights (Final Day) (Mean ± SD) [2, 10]: 26.5 ± 1.58
Log10 CFU/g [Mean ± SD] Blood [2, 10]: BLOQ
Log10 CFU/g [Mean ± SD] Kidneys [2, 10]: BLOQ
Log10 CFU/g [Mean ± SD] Liver [2, 10]: BLOQ
Log10 CFU/g [Mean ± SD] Spleen [2, 10]: BLOQ
Clinical observation (Mean Score) Hunched Posture ([2]; Day (0)): 0.0
Clinical observation (Mean Score) Rough coat ([2]; Day (0)): 0.0
Clinical observation (Mean Score) hyperpnea ([2]; Day (0)): 0.0
Clinical observation (Mean Score) Hunched Posture ([2]; Day (1)): 0.0
Clinical observation (Mean Score) Rough coat ([2]; Day (1)): 0.0
Clinical observation (Mean Score) hyperpnea ([2]; Day (1)): 0.0
Clinical observation (Mean Score) Hunched Posture ([2]; Day (2)): 0.0
Clinical observation (Mean Score) Rough coat ([2]; Day (2)): 0.0
Clinical observation (Mean Score) hyperpnea ([2]; Day (2)): 0.0
Clinical observation (Mean Score) Hunched Posture ([2]; Day (3)): 0.0
Clinical observation (Mean Score) Rough coat ([2]; Day (3)): 0.0
Clinical observation (Mean Score) hyperpnea ([2]; Day (3)): 0.0
Clinical observation (Mean Score) Hunched Posture ([2]; Day (4)): 0.0
Clinical observation (Mean Score) Rough coat ([2]; Day (4)): 0.0
Clinical observation (Mean Score) hyperpnea ([2]; Day (4)): 0.0
Clinical observation (Mean Score) Hunched Posture ([2]; Day (5)): 0.0
Clinical observation (Mean Score) Rough coat ([2]; Day (5)): 0.1
Clinical observation (Mean Score) hyperpnea ([2]; Day (5)): 0.0
Clinical observation (Mean Score) Hunched Posture ([2]; Day (6)): 0.0
Clinical observation (Mean Score) Rough coat ([2]; Day (6)): 0.1
Clinical observation (Mean Score) hyperpnea ([2]; Day (6)): 0.0
Clinical observation (Mean Score) Hunched Posture ([2]; Day (7)): 0.0
Clinical observation (Mean Score) Rough coat ([2]; Day (7)): 0.2
Clinical observation (Mean Score) hyperpnea ([2]; Day (7)): 0.0
Clinical observation (Mean Score) Hunched Posture ([2]; Day (−1)): 0.0
Clinical observation (Mean Score) Rough coat ([2]; Day (−1)): 0.0
Clinical observation (Mean Score) hyperpnea ([2]; Day (−1)): 0.0
Clinical observation (Mean Score) Hunched Posture ([2]; Day (−2)): 0.0
Clinical observation (Mean Score) Rough coat ([2]; Day (−2)): 0.0
Clinical observation (Mean Score) hyperpnea ([2]; Day (−2)): 0.0
Bacteria in treated animals ([2]; day 7, compound 1 at 50 mg/kg): BLOQ
Kidney -Raw data on Vancomycin (32 μg/ml) plates [2, 11]: BLOQ
Liver-Raw data on Vancomycin (32 μg/ml) plates [2, 11]: BLOQ
Spleen -Raw data on Vancomycin (32 μg/ml) plates [2, 11]: BLOQ
Blood -Raw data on Vancomycin (32 μg/ml) plates - on day 7 PI ([2]; individual animals, day 7 PI, 1 mg/kg, PO, twice daily(q12h), 9 days): BLOQ
clinical condition of animals ([2]; treated groups): apparently normal

Nc1ccccc1NC(=O)c1ccc(NC(=O)COCc2cn(CCO)nn2)cc1 [HO53]
Caco-2 Permeability A-B dir. [3]: Low
Active efflux [3]: Yes
Plasma stability Mouse [4]: Low
Plasma stability Rat [5]: High
Stability SGD, SIF w. Enzymes [6]: High
C_max IV - rat [7]: 21 µM
V-d IV - rat [7]: 1.7 L/kg
C_max PO - rat ([7]; PO): 0.09 µM
half-life [7, 12]: 35 min
half-life [7, 13]: 126 min
bioavailability [7]: 3%
MTD at 7 days [8]: > 50 mg/kg
Dose Esc. Tox mouse PO [9]: >100 mg/kg
Dose Esc. Tox mouse iv [9]: >100 mg/kg

Nc1ccccc1NC(=O)c1ccc(OCc2cn(CCO)nn2)cc1 [HO56]
Caco-2 Permeability A-B dir. [3]: Low
Active efflux [3]: Yes
Plasma stability Mouse [4]: High
Plasma stability Rat [5]: High
Stability SGD, SIF w. Enzymes [6]: High
C_max IV - rat [7]: 26 µM
V-d IV - rat [7]: 3.07 L/kg
C_max PO - rat ([7]; PO): 1.2 µM
half-life [7, 12]: 132 min
half-life [7, 13]: 94 min
bioavailability [7]: 16%
MTD at 7 days [8]: > 50 mg/kg
Dose Esc. Tox mouse PO [9]: >200 mg/kg
Dose Esc. Tox mouse iv [9]: 10 mg/kg
